Assays:
Test in all cases: relative viability (nuclei count vs DMSO), 5 days (fraction); higher = more cells survive
TPCA-1 + Pemetrexed = compound: C1=CC(=CC=C1C2=CC(=C(S2)NC(=O)N)C(=O)N)F [TPCA-1] + Nc1nc2[nH]cc(CCc3ccc(C(=O)N[C@@H](CCC(=O)O)C(=O)O)cc3)c2c(=O)[nH]1 [Pemetrexed] (partner 0.2 µM)
Summary of the method: (§1)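 Lung cancer cell lines, seeded in 1536-well plates, were treated the following day by pin tool with a single drug or with five library-drug doses (not always all listed) in √10 steps on top of a fixed anchor-drug dose. Cells were fixed and nuclei stained in one step after 5 days, and nuclei were counted. Relative viability is the nuclei count for treated wells divided by that for vehicle wells, reported as medians of duplicate plates.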

Lestaurtinib + OSI-027 = compound: C[C@]12O[C@H](C[C@]1(O)CO)n1c3ccccc3c3c4c(c5c6ccccc6n2c5c31)CNC4=O [Lestaurtinib] + COc1cccc2cc(-c3nc([C@H]4CC[C@H](C(=O)O)CC4)n4ncnc(N)c34)[nH]c12 [OSI-027] (partner 0.5 µM)
Summary of the method: as §1

[1] = compound: C1/C(=C\C2=CC=CS2)/C(=O)/C(=C/C3=CC=CS3)/C1 + C[C@]1(O)C[C@@H](c2nc(-c3ccc4ccc(-c5ccccc5)nc4c3)c3c(N)nccn32)C1 [Linsitinib] (partner 1 µM)
Summary of the method: as §1

[2] = compound: C1/C(=C\C2=CC=CS2)/C(=O)/C(=C/C3=CC=CS3)/C1 + CC(C)C[C@H](NC(=O)[C@H](Cc1ccccc1)NC(=O)c1cnccn1)B(O)O [Bortezomib] (partner 0.002 µM)
Summary of the method: as §1

| Cell Line | relative viability (TPCA-1 + Pemetrexed; first compound 0.04 µM) | relative viability (TPCA-1 + Pemetrexed; first compound 0.1265 µM) | relative viability (TPCA-1 + Pemetrexed; first compound 0.4 µM) | relative viability (TPCA-1 + Pemetrexed; first compound 1.265 µM) | relative viability (TPCA-1 + Pemetrexed; first compound 4 µM) | relative viability (Lestaurtinib + OSI-027; first compound 0.005 µM) | relative viability (Lestaurtinib + OSI-027; first compound 0.01581 µM) | relative viability (Lestaurtinib + OSI-027; first compound 0.05 µM) | relative viability (Lestaurtinib + OSI-027; first compound 0.1581 µM) | relative viability (Lestaurtinib + OSI-027; first compound 0.5 µM) | relative viability ([1]; first compound 0.2 µM) | relative viability ([1]; first compound 0.6325 µM) | relative viability ([1]; first compound 2 µM) | relative viability ([1]; first compound 6.325 µM) | relative viability ([1]; first compound 20 µM) | relative viability ([2]; first compound 0.2 µM) | relative viability ([2]; first compound 0.6325 µM) | relative viability ([2]; first compound 2 µM) | relative viability ([2]; first compound 6.325 µM) | relative viability ([2]; first compound 20 µM) |
| --- | --- | --- | --- | --- | --- | --- | --- | --- | --- | --- | --- | --- | --- | --- | --- | --- | --- | --- | --- | --- |
| NCI-H522 | 1.21 | 0.765 | 1.15 | 1.14 | 0.975 | 0.816 | 0.791 | 0.679 | 0.709 | 0.572 | – | – | – | – | – | – | – | – | – | – |
| NCI-H727 | – | – | – | – | – | 0.614 | 0.675 | 0.525 | 0.698 | 0.498 | 0.263 | 0.302 | 0.314 | 0.228 | 0.263 | 0.783 | 0.947 | 1.04 | 0.698 | 0.815 |
| NCI-H1299 | – | – | – | – | – | – | – | – | – | – | 1.02 | 1.04 | 0.933 | 0.789 | 0.956 | 1.07 | 1.05 | 0.96 | 0.898 | 1.03 |
| NCI-H1395 | 0.857 | 0.859 | 1.06 | 0.847 | 0.629 | 0.546 | 0.655 | 0.5 | 0.482 | 0.374 | 1.12 | 1.06 | 1.29 | 0.89 | 1.05 | – | – | – | – | – |
| NCI-H1623 | – | – | – | – | – | 0.4 | 0.412 | 0.428 | 0.399 | 0.398 | – | – | – | – | – | – | – | – | – | – |
| NCI-H1648 | 0.824 | 0.702 | 0.769 | 0.76 | 0.809 | 0.233 | 0.271 | 0.285 | 0.246 | 0.261 | – | – | – | – | – | – | – | – | – | – |
| NCI-H1650 | 0.382 | 0.369 | 0.424 | 0.358 | 0.365 | 0.642 | 0.829 | 0.594 | 0.652 | 0.357 | – | – | – | – | – | 0.221 | 0.231 | 0.327 | 0.202 | 0.186 |
| NCI-H1703 | – | – | – | – | – | – | – | – | – | – | 1.42 | 0.978 | 0.633 | 0.887 | 0.725 | 0.338 | 0.432 | 0.28 | 0.25 | 0.336 |
| NCI-H1793 | 0.97 | 0.709 | 0.921 | 0.963 | 0.249 | 0.291 | 0.257 | 0.242 | 0.274 | 0.183 | 0.815 | 0.855 | 0.913 | 0.855 | 0.685 | – | – | – | – | – |
| NCI-H1944 | 0.631 | 0.466 | 0.705 | 0.589 | 0.487 | 0.483 | 0.406 | 0.322 | 0.31 | 0.292 | 1.32 | 1.09 | 1.23 | 1.17 | 1.01 | – | – | – | – | – |
| NCI-H2170 | 0.273 | 0.34 | 0.288 | 0.28 | 0.265 | 0.726 | 0.523 | 0.45 | 0.561 | 0.471 | – | – | – | – | – | – | – | – | – | – |
| NCI-H2342 | 0.821 | 0.709 | 0.778 | 0.609 | 0.584 | 0.571 | 0.672 | 0.547 | 0.648 | 0.549 | – | – | – | – | – | – | – | – | – | – |
| SK-MES-1 | 0.925 | 0.808 | 0.91 | 0.769 | 0.631 | 0.536 | 0.486 | 0.407 | 0.342 | 0.151 | 1.05 | 1.1 | 0.992 | 0.818 | 0.982 | – | – | – | – | – |
| SW 900 | – | – | 0.492 | 0.495 | 0.468 | 0.561 | 0.702 | 0.623 | 0.522 | 0.527 | – | – | – | – | – | – | – | – | – | – |
